Test results published in patent US12370230B2, “Hemp and PEA formulation and its use” (priority 2019, dated 2025).

Legend:
[1] = tested on: IL-10 mRNA; experiment: Real-time quantitative PCR in lumbar spinal cords of CCI mice, IL-10; assay type: in vivo; details: PEA 20 mg/kg alone, oral, lumbar spinal cord, vs vehicle
Text: We elicited peripheral neuropathy in the left sciatic nerve of mice as described elsewhere (e.g., see Bennett & Xie, 1988). In brief, mice were anesthetized in 2-3% isoflurane in O2. Under aseptic conditions, the sciatic nerve was exposed at mid-thigh level through a small incision and loosely tied at 3 distinct sites (spaced at 1-mm interval) with 4-0 chromic catgut (Ethicon, USA). The wound was closed with a single muscle suture (Mersilk 5.0, Ethicon, USA) and glue to fasten the skin. Operated mice were returned to their home cages for recovery. […] Mice were sacrificed by decapitation, the spinal cords were extruded by hydraulic pressure and processed for specific mRNA quantification in lumbar segments by real-time quantitative PCR.
We extracted total RNA from lumbar spinal cords (L3-L6) using TRIzol™ reagent (Thermo Fisher Scientific, Walthman, USA) and purified with the PureLink™ RNA Mini Kit (Invitrogen, Carlsbad, USA) as directed by the supplier. […] RNA concentration and purity were determined using the NanoDrop 2000/2000-c spectrophotometer (Thermo Fisher Scientific, Walthman, USA). cDNA was synthesized using 2 μg of total RNA as input for the High-Capacity cDNA RT Kit with RNase Inhibitor (Applied BioSystems, Foster City, USA) with a final reaction volume of 20 μL. […]

[2] = tested on: CCI-evoked mechanical allodynia and heat hyperalgesia; experiment: Chronic constriction injury (CCI) of the sciatic nerve: mechanical allodynia and heat hyperalgesia; assay type: in vivo, mice
Experimental: (§1) We used male CD-1 mice (9-10 weeks old; Charles River, Wilmington, MA, US) weighing 25-30 g upon arrival. They were randomly assigned to treatment groups and housed in ventilated plastic cages (4-5 per cage) in the animal facility of the University of California, Irvine. Animals were maintained in a pathogen-free environment (12-h light/dark cycle) under controlled temperature (20±2° C.) and humidity (55-60%) with food and water available ad libitum. Mice were allowed to acclimate for at least 7 days and experiments were conducted during the light phase of the light/dark cycle. All efforts were made to minimize the number of animals used and their discomfort. All procedures were approved by the Institutional Animal Care and Use Committee at the University of California, Irvine, and were carried out in strict accordance with the National Institutes of Health guidelines for the care and use of animals.
(§2) HOE (code: VOHO-MGC) and PEA (batch No 20190604_03) were supplied by Metagenics Inc. The chemical composition of HOE is presented in Table A below. The extract was aliquoted upon arrival at our facility and kept at −80° C. until use. Before tests, aliquots were thawed at room temperature and the extract was diluted to the desired dose in a vehicle of 85% distilled water/15% Tween 80. Defrosted samples were discarded after use. HOE was subjected to an internal quality control to monitor its content of CBD and CBDA over time. HOE, PEA and their combinations were administered in volumes of 10 mL/kg by oral gavage.
We elicited peripheral neuropathy in the left sciatic nerve of mice as described elsewhere (e.g., see Bennett & Xie, 1988). In brief, mice were anesthetized in 2-3% isoflurane in O2. Under aseptic conditions, the sciatic nerve was exposed at mid-thigh level through a small incision and loosely tied at 3 distinct sites (spaced at 1-mm interval) with 4-0 chromic catgut (Ethicon, USA). The wound was closed with a single muscle suture (Mersilk 5.0, Ethicon, USA) and glue to fasten the skin. Operated mice were returned to their home cages for recovery. Test compounds or vehicle were given by the oral route on day 7 after surgery (acute treatment) and then repeatedly once daily for 7 consecutive days (subchronic treatment). Behavioral tests were performed within 1 h of acute treatment or last subchronic treatment in both operated (ipsilateral) and contralateral paws. Mice were sacrificed by decapitation, the spinal cords were extruded by hydraulic pressure and processed for specific mRNA quantification in lumbar segments by real-time quantitative PCR.
Mechanical sensitivity was assessed using a dynamic plantar aesthesiometer (Cat. No 37450, Ugo Basile, Italy). Mice were placed individually in transparent cages positioned on a wire mesh surface. After a 45-min habituation period, a mechanical stimulus was delivered to the plantar surface of the hind paws through the metal grid by an automated steel filament exerting an increasing force ranging from 0 to 5 grams over 10 s. The force at which the mouse withdrawn its paw (withdrawal threshold, in grams) was measured automatically. Thermal sensitivity was measured using a Hargreaves plantar test apparatus (San Diego Instruments, Inc, CA, USA). Mice were individually placed in small enclosures with a glass floor. After a 45-min habituation period, the plantar surface of the hind paws was exposed to a beam of radiant heat (infrared heat intensity: 3.0) through the glass floor. The cut-off time was set at 15 s. The time taken to withdraw the paw from heat stimulus (withdrawal latency, in seconds) was measured automatically. Each paw was tested 3 times with a 2-min interval between stimuli and the mean paw withdrawal threshold and latency were calculated. Paw thickness was measured in both ipsilateral and contralateral paws using a digital caliper (Cat. No 06-664-16, Fisher scientific, USA). […]

[3] = tested on: formalin-evoked acute and persistent nociceptive behaviors; experiment: Formalin test (acute nocifensive response; PFD7 hypersensitivity and paw edema); assay type: in vivo, mice
Experimental: as §1, §2
The formalin test was described in detail previously (e.g., see Dubuisson & Dennis, 1977). We injected formalin (1% v/v, 10 μL) or vehicle (saline, 10 μL) into the plantar surface of the right hind paw of male mice. Test compounds or vehicle (85% distilled water/15% Tween 80) were administered orally 1 h before formalin injection. Following injection, mice were immediately transferred to a transparent observation chamber where nocifensive behavior (time spent licking or biting the injected paw, number of shakings) was continuously recorded by a video camera for 60 min and then measured by trained observers blinded to experimental conditions. Behavioral tests and paw edema measurements were performed on post-formalin day (PFD) 7 in both the injected (ipsilateral) and contralateral paws.
Mechanical sensitivity was assessed using a dynamic plantar aesthesiometer (Cat. No 37450, Ugo Basile, Italy). Mice were placed individually in transparent cages positioned on a wire mesh surface. After a 45-min habituation period, a mechanical stimulus was delivered to the plantar surface of the hind paws through the metal grid by an automated steel filament exerting an increasing force ranging from 0 to 5 grams over 10 s. The force at which the mouse withdrawn its paw (withdrawal threshold, in grams) was measured automatically. Thermal sensitivity was measured using a Hargreaves plantar test apparatus (San Diego Instruments, Inc, CA, USA). Mice were individually placed in small enclosures with a glass floor. After a 45-min habituation period, the plantar surface of the hind paws was exposed to a beam of radiant heat (infrared heat intensity: 3.0) through the glass floor. The cut-off time was set at 15 s. The time taken to withdraw the paw from heat stimulus (withdrawal latency, in seconds) was measured automatically. Each paw was tested 3 times with a 2-min interval between stimuli and the mean paw withdrawal threshold and latency were calculated. Paw thickness was measured in both ipsilateral and contralateral paws using a digital caliper (Cat. No 06-664-16, Fisher scientific, USA). Paw edema was quantified as the difference (paw thickness, in mm) between the ipsilateral paw thickness and the contralateral counterpart.
Results are presented as mean S.E.M. of n experiments. ED50 values were determined by linear regression analysis of dose-response curves. […]

[4] = PEA 100 or 300 mg/kg oral once daily for 7 consecutive days, day 14 after CCI
[5] = single oral PEA administration, dose-response, day 7 after CCI, vs vehicle
[6] = PEA 300 mg/kg oral single dose, PFD7, vs vehicle
[7] = PEA at dosages lower than 300 mg/kg oral, PFD7, P>0.05 vs vehicle

## CCCCCCCCCCCCCCCC(=O)NCCO [PEA, palmitoylethanolamide]
[1]
  IL-10 mRNA levels: halved
[2]; [4]
  effect on heat hyperalgesia, subchronic: reversed
  effect on mechanical allodynia, subchronic: reversed
[2]; single oral PEA administration, day 7 after CCI, 95% CI 18.7 to 26.0
  ED50, suppression of mechanical allodynia: 22.2 mg/kg
[2]; single oral PEA administration, day 7 after CCI, 95% CI 21.8 to 29.1
  ED50, suppression of heat hyperalgesia: 25.1 mg/kg
[2]; [5]
  suppression of heat hyperalgesia (maximal): ≤ 109%
  suppression of mechanical allodynia (maximal): up to 85%
[3]; [6]
  alleviation of heat hyperalgesia, contralateral paw: 110%
  alleviation of heat hyperalgesia, ipsilateral paw: 93%
  attenuation of mechanical allodynia, contralateral paw: 112%
  attenuation of mechanical allodynia, ipsilateral paw: 91%
[3]; PEA 10, 30, 100 and 300 mg/kg oral
  formalin-evoked nocifensive response: dose-dependent suppression
[3]; PEA 10, 30, 100 and 300 mg/kg oral, PFD7
  formalin-evoked inflammatory response (paw thickness): dose-dependent suppression
[3]; [7]
  effect on heat hyperalgesia: no effect
  effect on mechanical allodynia: no effect
